Key:
[1] = Permeability of Compound I (stated in words); type: in vitro ADME
[2] = Oral exposure of suspension formulations (preformulation studies); type: in vivo; settings: increased with 0.5% HPMC, depends on fed/fasted state
[3] = Solubility of Compound I (preformulation, stated in words); type: physicochemical; settings: b16: in vitro, crystalline form
[4] = Biorelevant dissolution testing (solubility/precipitation): SGF (0.1N HCl) then transfer to SIF (FaSSIF); type: physicochemical; settings: for Total Drug CmaxGB: SGF (0.1N HCl, pH=1), 0-30 min, equivalent to 2.0 mg/mL of compound I in 50 mL; for Total Drug AUC 35-210 FaSSIF / Total Drug C210: SIF/FaSSIF; for Total Drug AUC 35-210 FaSSIF: 35-210 min; for Total Drug C210: 210 min; for Total Drug CmaxFaSSIF: after transfer at 30 min into 50 mL SIF (2.24 mg/mL FaSSIF in 100 mM PBS)
Method: Appropriate amounts (equivalent to 2.0 mg/mL of compound I) of composition of invention were added to 50 mL of 0.1N HCl and stirred. The aliquots of mixture were withdrawn at 10 and 25 minutes, vortexed for 10 seconds and the dissolved amount was measure by analytical HPLC using external reference standards at a wavelength of 240 nm. After 30 minutes, the entire content of sample from SGF incubation was transferred into 50 mL of SIF media with stirring, and the dissolved amount was measured at 35, 50, 75, 120 and 210 minutes.

Permeability [1] | Oral exposure [2] | Solubility ([3]; listed as Compound I) | Solubility ([3]; listed as compound I) | Total Drug CmaxGB [4] [μgA/mL] | Total Drug AUC 35-210 FaSSIF [4] [min * μgA/mL] | Total Drug C210 [4] [μgA/mL] | Total Drug CmaxFaSSIF [4] [μgA/mL] | Increase in AUC over API AUC ([4]; AUC 35-210 FaSSIF relative to BNC210 API) | Compound
moderate permeability | low oral exposure | poorly soluble | poor in vitro solubility | 88 | 4300 | 29 | 32 | – | CCn1cc(C(=O)N2CCOCC2)c(=O)c2cc(NC3Cc4ccccc4C3)cnc21 [BNC210 API]
– | – | – | – | 158 | 8700 | 60 | 68 | 2 | CCn1cc(C(=O)N2CCOCC2)c(=O)c2cc(NC3Cc4ccccc4C3)cnc21 [100% BNC210 SD]
